In paper PMC12518639, “Apomorphine is a novel necroptosis inhibitor targeting mixed lineage kinase domain-like protein oligomerization” (Cell Death Discovery, 2025):
Structures can show the parent of a compound that is named as a salt. Where a SMILES comes first, the peptide text is derived from it. The star is where a group is joined. Cbz = O=C(OCc1ccccc1)*

These molecules were tested on THP-1-HMGB1-Lucia cells (assay: TBZ-induced necroptosis screening by HMGB1-luciferase release). Settings: 20 μM compound with TBZ, 8 h; TBZ alone = 100, DPBS = 0; read-out: % Inhibition (luciferase activity relative to TBZ-treated supernatant).
Assay type: cell-based, human
Protocol: To identify potential inhibitors of the necroptosis pathway targeting MLKL or the process of p-MLKL pore formation on the membrane, we screened a library of 2150 compounds, including FDA-approved drugs and those in phase 1–3 clinical trials, using THP-1-HMGB1-Lucia™ cells expressing the HMGB1-luciferase fusion protein. The cells were treated with a necroptosis-inducing mixture containing TNF-α, BV6, and Z-VAD-FMK (TBZ) in addition to the compound library (Fig. 1A). The supernatants were harvested to measure luciferase activities for necroptosis. The luciferase activities of cell supernatants treated with TBZ alone were considered as the maximum release (100%) of HMGB1-luciferase. NEC-1, a known RIP1 inhibitor used in both humans and mice, was used as a positive control. […] Next, we performed a propidium iodide (PI) uptake assay to exclude cytotoxic compounds using THP-1 cells. Then, we selected candidate molecules that were arbitrarily less than 30% of those treated with TBZ. […] Next, the inhibition levels of p-MLKL were tested to select MLKL-targeting molecules (Figs. 1C and S1A). Compounds that reduced p-MLKL levels to less than 30% of TBZ-treated controls were considered as potential inhibitors of MLKL phosphorylation. Conversely, compounds that maintained p-MLKL levels above 70% were selected because they are presumed to prevent the formation of pores in the plasma membrane by interfering with oligomerization.
A clinical chemical library containing 2150 items (Korea Chemical Bank, South Korea), under phase 1–3 clinical trials, including FDA-approved drugs, was used to screen for necroptosis inhibitors. Each chemical was dissolved in DMSO and diluted to 20 μM in DPBS for treatment.
THP-1-HMGB1-Lucia^TM cells were pretreated with the pan-caspase inhibitor Z-VAD-FMK (50 μM, tlrl-vad, InvivoGen) and each chemical for 1 h, and followed by TNF-α (100 ng/mL, TNF0501, NKMAXBio, Seongnam, S. Korea) and Smac mimetic BV6 (10 μM, B1332-5, Biovision, Santa Clara, CA, USA), termed TBZ mixture, were added for necroptosis screening. The RIP1 inhibitor, NEC-1 (1846, Biovision), and MLKL inhibitor, NSA (432531-71-0, Sigma-Aldrich, St. Louis, MO, USA), were used as controls. The cell supernatant was harvested to measure HMGB1 levels using a luciferase assay kit (E1500, Promega, Madison, WI, USA) by a luminometer (Centro XS3 LB 960, Berthold Technologies, Bad Wildbad, Germany). The inhibition of necroptosis (%) was calculated as: (sample-treated data – medium-only data) × 100/(TBZ-treated data – medium-only data). APO [STK088477, (6aS)-6-methyl-5,6,6a,7-tetrahydro-4H-dibenzo[de,g]quinoline-10,11-diol, Vitas-M Laboratory, Hong Kong] was stored at −70 °C after aliquoting with DMSO. APO was used after dilution in DPBS. APO is susceptible to auto-oxidation in solution in the presence of light and air. DPBS containing 5 mM DTT was used for Re-APO. Ox-APO was prepared by incubating APO in DPBS at 25 °C for 24 h in the presence of light and air, followed by removal of any precipitate by filtration through 0.2 μm.
Work on `COc1ccc(CNC(=O)Nc2ncc([N+](=O)[O-])s2)cc1` [S36, AR-A014418] yielded an activity of 10.8%.
Work on `CCCc1c(-c2ccc(O)cc2)nn(-c2ccc(O)cc2)c1-c1ccc(O)cc1` [S71, PPT] yielded an activity of 1.5%.
With `O=c1[nH]c2ccc(Cl)cc2c(N[C@@H]2CN3CCC2CC3)c1-c1nc2ccccc2[nH]1` [S45, CHIR 124] the activity was 6.5%.
`CC(C)C[C@@H](C=O)NC(=O)[C@H](CC(C)C)NC(=O)[C@H](CC(C)C)NC(=O)OCc1ccccc1` [S6, Z-Leu-Leu-Leu-al] (Cbz-Leu-Leu-Leu-aldehyde) gave an activity of 7.5%.
`COc1ccc(C(c2c(O)c3ccccc3oc2=O)c2c(O)c3ccccc3oc2=O)cc1Cn1nc(C)c([N+](=O)[O-])c1C` [S33, STK528708] gave an activity of 0.1%.
In the case of `O=S(=O)(c1ccccc1)N(CC(F)(F)F)c1ccc(C(O)(C(F)(F)F)C(F)(F)F)cc1` [S52, T0901317], the activity is reported as 7.2%.
`CC(C)c1onc(-c2c(Cl)cccc2Cl)c1COc1ccc(/C=C/c2cccc(C(=O)O)c2)c(Cl)c1` [S27, GW4064] was tested, and the activity was 9.2%.
In the case of `COc1ccc(C(c2c(O)c3ccccc3oc2=O)c2c(O)c3ccccc3oc2=O)cc1CSc1ccccn1` [S29, STK529529], the activity is reported as 2.8%.
Molecule `Cc1ccccc1N(C)C(=O)c1ccc([S+]([O-])c2nccs2)c([N+](=O)[O-])c1` (stereo not shown) [S32, SB 268262] has an activity of 0%.
Molecule JTE 013 [S11] has an activity of 5.8%.
For `O=C1/C(=C/c2ccccc2F)CNC/C1=C\c1ccccc1F` [S49, EF-24], the activity was 10.2%.
In the case of `COc1ccc(CN2CCN(C(c3ccc(F)cc3)c3ccc(F)cc3)CC2)c(OC)c1OC` [S64, Lomerizine hydrochloride], the activity is reported as 5.3%.
`CC(=O)c1ccc(NC2=C(Cl)C(=O)c3ccccc3C2=O)cc1` [S21, NQ301] showed an activity of 4.1%.
`O=C(Nc1ccc(S(=O)(=O)C(F)(F)F)cc1)C1=CCN(c2ncccc2C(F)(F)F)CC1` [S7, A 784168] gave an activity of 4.2%.
For `CN1C(=O)C(Cc2c[nH]c3ccccc23)NC1=S` (stereo not shown) [Necrostatin-1], the activity was 1.2%.
In the case of `COc1ccc(CNc2nc(N(CCO)CCO)nc3c2ncn3C(C)C)cc1` [S12, CVT-313], the activity is reported as 4.7%.

Same assay, conditions: Homo sapiens, 8 h, read-out: % Inhibition (luciferase activity relative to TBZ-treated supernatant)
`CC(C)CN(C[C@@H](O)[C@H](Cc1ccccc1)NC(=O)O[C@H]1CO[C@H]2OCC[C@H]21)S(=O)(=O)c1ccc(N)cc1` [S23, Prezista] gave an activity at 20 µM of 11.2%.
`COc1cccc2c1C(=O)c1c(O)c3c(c(O)c1C2=O)C[C@@](O)(C(C)=O)C[C@@H]3O[C@H]1C[C@H](N)[C@H](O)[C@H](C)O1` [S61, Daunorubicin] gave an activity at 20 µM of 6%.
In the case of `C[C@@H]1O[C@@H](O[C@@H]2C=C3CC[C@@H]4[C@H](CC[C@]5(C)[C@@H](c6ccc(=O)oc6)CC[C@]45O)[C@@]3(C)CC2)[C@H](O)[C@H](O)[C@H]1O` [S48, Proscillaridin], the activity at 20 µM is reported as 6.8%.

Same assay, conditions: Homo sapiens; 20 μM compound with TBZ, 8 h; TBZ alone = 100, DPBS = 0; read-out: % Inhibition (luciferase activity relative to TBZ-treated supernatant)
For `CCc1c(Cl)c(O)c(Cl)c(O)c1C(=O)O[C@H]1[C@H](O)[C@H](OC)[C@H](OC/C2=C\C=C\C[C@H](O)/C(C)=C/[C@H](CC)[C@@H](O[C@@H]3OC(C)(C)[C@@H](OC(=O)C(C)C)[C@H](O)[C@@H]3O)/C(C)=C/C(C)=C/C[C@@H]([C@@H](C)O)OC2=O)O[C@@H]1C` [S5, Fidaxomicin], the activity at 20 µM was 5.9%.
`CC(C)[C@H](CO)Nc1nc(Nc2cccc(Cl)c2)c2ncn(C(C)C)c2n1` [S44, Purvalanol A] showed an activity at 20 µM of 3.8%.
`CCCS(=O)(=O)Nc1ccc(F)c(C(=O)c2c[nH]c3ncc(-c4ccc(Cl)cc4)cc23)c1F` [S30, Vemurafenib] showed an activity at 20 µM of 6.4%.
`Cc1cc(SCc2sc(-c3ccc(C(F)(F)F)cc3)nc2C)ccc1OCC(=O)O` [S41, GW 501516] gave an activity at 20 µM of 9.1%.
`Cc1ccc(-n2nc(C(C)(C)C)cc2NC(=O)Nc2ccc(OCCN3CCOCC3)c3ccccc23)cc1` [S51, Doramapimod] gave an activity at 20 µM of 3.9%.
`COC(=O)[C@]12CCC(C)(C)C[C@H]1[C@H]1C(=O)C=C3[C@@]4(C)C=C(C#N)C(=O)C(C)(C)[C@@H]4CC[C@@]3(C)[C@]1(C)CC2` [S8, Bardoxolone methyl] showed an activity at 20 µM of 0%.
`CC[C@@]1(O)C(=O)OCc2c1cc1n(c2=O)Cc2cc3c(CN(C)C)c(O)ccc3nc2-1` [S65, Topotecan hydrochloride] showed an activity at 20 µM of 5.2%.
Work on `CNCc1ccc(-c2[nH]c3cc(F)cc4c3c2CCNC4=O)cc1` [S42, Rucaparib] yielded an activity at 20 µM of 9.1%.
`CO[C@H]1C[C@@H]2CC[C@@H](C)[C@@](O)(O2)C(=O)C(=O)N2CCCC[C@H]2C(=O)O[C@H]([C@H](C)C[C@@H]2CC[C@@H](O)[C@H](OC)C2)CC(=O)[C@H](C)/C=C(\C)[C@@H](O)[C@@H](OC)C(=O)[C@H](C)C[C@H](C)/C=C/C=C/C=C/1C` [S56, Sirolimus] showed an activity at 20 µM of 0.3%.
Work on `O=c1ncn2nc(Sc3ccc(F)cc3F)ccc2c1-c1c(Cl)cccc1Cl` [S2, Neflamapimod] yielded an activity at 20 µM of 6.8%.
For `NC(CO)(CO)CO` [S59, Trometamol], the activity at 20 µM was 11%.
`C#C[C@]1(O)CC[C@H]2[C@@H]3CCc4cc(OC5CCCC5)ccc4[C@H]3CC[C@@]21C` [S54, Quinestrol] was tested, and the activity at 20 µM was 8.2%.
Work on `O=S(=O)(c1cccc2cnccc12)N1CCCNCC1` [S68, Fasudil hydrochloride] yielded an activity at 20 µM of 6%.
Work on `COc1cc2nccc(Oc3ccc(NC(=O)C4(C(=O)Nc5ccc(F)cc5)CC4)cc3)c2cc1OC` [S14, Cabozantinib] yielded an activity at 20 µM of 0.7%.
For `O=C(N[C@H](CO)[C@H](O)c1ccc([N+](=O)[O-])cc1)C(Cl)Cl` [S69, Chloramphenicol], the activity at 20 µM was 0%.
`C=C(CC)C(=O)c1ccc(OCC(=O)O)c(Cl)c1Cl` [S26, Ethacrynic acid] showed an activity at 20 µM of 3%.
For `CN1CCN(c2nc(C3=C(c4c[nH]c5ccccc45)C(=O)NC3=O)c3ccccc3n2)CC1` [S22, Sotrastaurin], the activity at 20 µM was 4.7%.
`COc1cccc2c1C(=O)c1c(O)c3c(c(O)c1C2=O)C[C@@](O)(C(=O)CO)C[C@@H]3O[C@H]1C[C@H](N)[C@H](O)[C@H](C)O1` [S66, Doxorubicin] gave an activity at 20 µM of 8.6%.
`CC1(C)CNc2cc(NC(=O)c3cccnc3NCc3ccncc3)ccc21` [S37, Motesanib] was tested, and the activity at 20 µM was 9.4%.
`O=C(Nc1cccc2c(=O)cc(-c3nnn[nH]3)oc12)c1ccc(OCCCCc2ccccc2)cc1` [S50, Pranlukast] gave an activity at 20 µM of 10.9%.
For `CC(=O)[C@@]1(O)CC[C@H]2[C@@H]3CCC4=CC(=O)CCC4=C3[C@@H](c3ccc(N(C)C)cc3)C[C@@]21C` [S24, Ulipristal], the activity at 20 µM was 14%.
For `CN(C)CCOC(c1ccccc1)c1ccccc1` [S70, Diphenhydramine], the activity at 20 µM was 19.1%.
For `CC[C@H]1CN2CCc3cc(OC)c(OC)cc3[C@@H]2C[C@@H]1C[C@H]1NCCc2cc(OC)c(OC)cc21` [S13, Emetine dihydrochloride], the activity at 20 µM was 3.3%.
Work on `COCCOC(=O)C1=C(C)NC(C)=C(C(=O)OC/C=C/c2ccccc2)C1c1cccc([N+](=O)[O-])c1` (stereo not shown) [S63, Cilnidipine] yielded an activity at 20 µM of 11%.
In the case of `CO[C@H]1C[C@@H]2CC[C@@H](C)[C@@](O)(O2)C(=O)C(=O)N2CCCC[C@H]2C(=O)O[C@H]([C@H](C)C[C@@H]2CC[C@@H](OC(=O)C(C)(CO)CO)[C@H](OC)C2)CC(=O)[C@H](C)/C=C(\C)[C@@H](O)[C@@H](OC)C(=O)[C@H](C)C[C@H](C)/C=C/C=C/C=C/1C` [S9, Temsirolimus], the activity at 20 µM is reported as 19%.
Molecule `COC(=O)C1=C(C)NC(C)=C(C(=O)OCCN(C)Cc2ccccc2)C1c1cccc([N+](=O)[O-])c1` (stereo not shown) [S60, Nicardipine hydrochloride] has an activity at 20 µM of 3.8%.
`O=C(O)Cc1cccc(OCCCN(Cc2cccc(C(F)(F)F)c2Cl)CC(c2ccccc2)c2ccccc2)c1` [S40, GW3965] was tested, and the activity at 20 µM was 11.6%.
`N#CC1(c2ccc(NC(=O)c3cccnc3NCc3ccncc3)cc2)CCCC1` [S43, Apatinib] showed an activity at 20 µM of 3.4%.
Work on `COc1cccc2c1C(=O)c1c(O)c3c(c(O)c1C2=O)C[C@@](O)(C(=O)CO)C[C@@H]3O[C@H]1C[C@H](N)[C@H](O[C@@H]2CCCCO2)[C@H](C)O1` [S57, Pirarubicin] yielded an activity at 20 µM of 6.4%.
With `Nc1ccc2cc3ccc(N)cc3nc2c1` [S55, Proflavine hemisulfate] the activity at 20 µM was 3.5%.
